ChEMBL document CHEMBL1143046, “Synthesis and bioassay evaluation of 1-(4-substitutedideneaminooxymethyl)-phenyl-3-(2,6-difluorobenzoyl)ureas” (2007)

Legend:
Type in all cases: functional
[1] = tested on: Mythimna separata; assay: Insecticidal activity against Mythimna separata at 500 mg/kg
[2] = tested on: Mythimna separata; assay: Insecticidal activity against Mythimna separata at 200 mg/kg
[3] = tested on: Nephotettix cincticeps; assay: Insecticidal activity against Nephotettix cincticeps at 500 mg/kg
[4] = tested on: Tetranychus urticae; assay: Acarcidal activity against Tetranychus urticae eggs at 200 mg/kg
[5] = tested on: Tetranychus urticae; assay: Acarcidal activity against Tetranychus urticae larvae at 200 mg/kg
[6] = tested on: Mythimna separata; assay: Insecticidal activity against Mythimna separata at 50 mg/kg
[7] = tested on: Mythimna separata; assay: Insecticidal activity against Mythimna separata at 10 mg/kg
[8] = tested on: Mythimna separata; assay: Insecticidal activity against Mythimna separata at 100 mg/kg
[9] = tested on: Mythimna separata; assay: Insecticidal activity against Mythimna separata at 25 mg/kg

| Structure (SMILES) | Activity [1] | Activity [2] | Activity [3] | Activity [4] | Activity [5] | Activity [6] | Activity [7] | Activity [8] | Activity [9] |
| --- | --- | --- | --- | --- | --- | --- | --- | --- | --- |
| CC(C)Oc1ccc(/C=N\OCc2ccc(NC(=O)NC(=O)c3c(F)cccc3F)cc2)cc1 | 0% | – | – | – | – | – | – | – | – |
| O=C(NC(=O)c1c(F)cccc1F)Nc1ccc(CO/N=C\OCc2ccccc2)cc1 | 30% | 0% | 45.7% | – | – | – | – | – | – |
| O=C(NC(=O)c1c(F)cccc1F)Nc1ccc(CO/N=C\c2ccc3c(c2)OCO3)cc1 | 100% | 100% | 33.3% | 11% | 10% | 100% | 50% | 100% | 100% |
| N#C/C(=N/OCc1ccc(NC(=O)NC(=O)c2c(F)cccc2F)cc1)c1ccccc1 | 25% | 0% | 50% | – | – | 0% | 0% | 0% | 0% |
| C/C(=N/OCc1ccc(NC(=O)NC(=O)c2c(F)cccc2F)cc1)c1ccc2c(c1)OCO2 | 100% | 100% | – | 10% | 7% | 90% | 15% | 100% | 70% |
| Cc1ccc(Oc2c(/C=N\OCc3ccc(NC(=O)NC(=O)c4c(F)cccc4F)cc3)c(C)nn2C)cc1C | 60% | 0% | 24.3% | – | – | 0% | 0% | 0% | 0% |
| C/C(=N/OCc1ccc(NC(=O)NC(=O)c2c(F)cccc2F)cc1)n1cncn1 | 100% | 100% | 19.2% | 12% | 10% | 50% | 0% | 100% | 0% |
| CCCCS/C(=N/OCc1ccc(NC(=O)NC(=O)c2c(F)cccc2F)cc1)c1ccc(C(C)(C)C)cc1 | 80% | 65% | 56.3% | – | – | 25% | 0% | 40% | 0% |
| Cc1nn(-c2ccccc2)c(Cl)c1/C=N\OCc1ccc(NC(=O)NC(=O)c2c(F)cccc2F)cc1 | 100% | 40% | 62.5% | – | – | 0% | 0% | 0% | 0% |
| CCCS/C(C)=N\OCc1ccc(NC(=O)NC(=O)c2c(F)cccc2F)cc1 | 75% | 15% | – | – | – | – | 0% | 10% | 10% |
| Cc1cc(C)cc(Oc2c(/C=N\OCc3ccc(NC(=O)NC(=O)c4c(F)cccc4F)cc3)c(C)nn2C)c1 | 100% | 100% | 69.7% | – | – | 0% | 0% | 50% | 0% |
| O=C(NC(=O)c1c(F)cccc1F)Nc1ccc(CO/N=C(/c2ccc(Cl)cc2)C2CC2)cc1 [FLUCYCLOXURON] | – | – | 42.8% | 100% | 100% | – | 100% | – | 100% |
| Cc1ccc(Oc2c(/C=N\OCc3ccc(NC(=O)NC(=O)c4c(F)cccc4F)cc3)c(C)nn2C)cc1 | 30% | 0% | 50% | – | – | 0% | 0% | 0% | 0% |
| CCS/C(=N/OCc1ccc(NC(=O)NC(=O)c2c(F)cccc2F)cc1)C(C)C | 100% | 100% | 41% | 76% | 43% | – | 0% | 50% | 0% |
| CC(C)(C)c1ccc(/C=N\OCc2ccc(NC(=O)NC(=O)c3c(F)cccc3F)cc2)cc1 | 30% | 0% | 18.2% | – | – | – | – | – | – |
